The subject of one experiment is L6 cells. Put plainly: Cytotoxicity in rat skeletal myoblast cell line (L6 cells). It counts as cell-based. Here is the method:
Cytotoxicity was determined using a rat skeletal myoblast cell line (L6 cells). The culture medium was RPMI 1640 supplemented with L-glutamine 2 mM, HEPES 5.95 g/l, NaHCO3 2 g/l and 10% foetal bovine serum. Podophyllotoxin (Sigma-Aldrich) was used as the reference drug. The assay was performed following the antitrypanosomal assay protocol as described above. The IC50 values were calculated from the sigmoidal growth inhibition curves using Softmax Pro software (Molecular Devices Corp.). Tests were done in three independent experiments in duplicate.

The test system of experiment [1] is Trypanosoma brucei rhodesiense STIB 900 bloodstream forms. Put plainly: In vitro trypanocidal activity (Alamar Blue assay, 72 h). It counts as cell-based. To be noted: for IC50: Trypanosoma brucei, 72 h, read-out: T.b.rhodesiense IC50; for SI: selectivity index (IC50 of L6 cells/ IC50 of T.b.rhodesiense): L6 cells versus T. b. rhodesiense. How it is done: Minimum essential medium (50 μl) supplemented according to a standard method, with 2-mercaptoethanol and 15% heat inactivated horse serum was added to each well of a 96-well microtiter plate. Serial three-fold compound dilutions were prepared covering a range from 90 to 0.123 μg/ml. Then 10^4 bloodstream forms of Trypanosoma brucei rhodesiense STIB 900 (a clone of a population isolated in 1982 from a patient in Tanzania) in 50 μl culture medium were added to each well and the plate incubated at 37°C under a 5% CO2 atmosphere for 72 h. Ten microlitres of Alamar Blue (12.5 mg resazurin dissolved in 100 ml distilled water) were then added to each well and incubation continued for a further 2–4 h. The plate was then read in a Spectramax Gemini XS microplate fluorometer (Molecular Devices Cooperation, Sunnyvale, CA, USA) using an excitation wavelength of 536 nm and emission wavelength of 588 nm. Fluorescence development was measured and expressed as percentage of the control. Data were transferred into the graphic programme Softmax Pro (Molecular Devices) which calculated IC50 values. Melarsoprol was used as standard drug.
(Resazurin is reduced to fluorescent resorufin, in cell work by metabolically active cells.)

Setting [2] is: T. b. rhodesiense STIB 900 bloodstream forms, 72 h incubation, Alamar Blue.
The mark [3] stands for this setting: rat skeletal myoblast L6 cells, cytotoxicity, read-out: L6 Cells IC50.

≈ marks a conversion by molar mass, not a printed value. Where two headings read alike, the source gives them in different places.

The IC50 is the point on the concentration scale where inhibition reaches its midpoint.

With “2-(3′,4′-dimethoxyphenyl)-7-hydroxychromen-4-one [Compound 7]”, in the experiment on L6 cells (rat skeletal myoblast L6 cells, cytotoxicity), the “L6 Cells IC50” value amounted to 1.58 µg/mL. Moreover, the “T.b.rhodesiense IC50” value in experiment [1] (setting [2]) worked out at 10.8 µg/mL.

For the compound `COc1cc(-c2oc3cc(O)cc(O)c3c(=O)c2OC)ccc1O` [Compound 2, 2-(5′-methoxyphenyl) 4′,5,7-trihydroxy-3-methoxychromen-4-one], the results for the IC50 (with L6 cells (setting [3]); in experiment [1] (setting [2])) were 6.64 µg/mL (≈ 20.1 µM) and 12.3 µg/mL (≈ 37.2 µM), respectively.

In the case of `COc1cc2oc(-c3ccc(O)cc3)c(OC)c(=O)c2c(O)c1OC` [Compound 3, Penduletin], the IC50 in the experiment on L6 cells (setting [3]) came out at 14 µg/mL (≈ 40.7 µM). For the same compound, in experiment [1] (setting [2]), the “T.b.rhodesiense IC50” value was 13.8 µg/mL.

With `COc1cc(O)c2c(=O)c(OC)c(-c3ccc(O)cc3)oc2c1` [Compound 4, 2-(4′-hydroxyphenyl)-5-hydroxy 3,7-dimethoxy chromen-4-one], the IC50 worked out at 28.2 µg/mL (≈ 89.7 µM) in the experiment on L6 cells (setting [3]) and 19.4 µg/mL (≈ 61.7 µM) in experiment [1] (setting [2]). Besides, the “SI: selectivity index (IC50 of L6 cells/ IC50 of T.b.rhodesiense)” value in experiment [1] is given as 1.4.

On to `O=c1c(O)c(-c2ccc(O)cc2)oc2cc(O)cc(O)c12` [Compound 5, 2-(4-hydroxyphenyl)-3,5,7-trihydroxy chromen-4-one], for which the IC50 is 100 µg/mL (≈ 349 µM) with L6 cells (setting [3]) and 23.7 µg/mL (≈ 82.8 µM) in experiment [1] (setting [2]).

As to `COc1ccc(-c2oc3cc(OC)c(OC)c(O)c3c(=O)c2OC)cc1OC` [Compound 6, Artemetin], the 50% inhibitory concentration (IC50) came to 46.2 µg/mL (≈ 119 µM) in the experiment with L6 cells (setting [3]) and 4.7 µg/mL (≈ 12.1 µM) in experiment [1] (setting [2]). The “SI: selectivity index (IC50 of L6 cells/ IC50 of T.b.rhodesiense)” value in experiment [1] amounted to 9.8.

In the case of `Nc1nc(N)nc(Nc2ccc([As]3SCC(CO)S3)cc2)n1` (stereo not shown) [Melarsoprol, reference compound], in experiment [1], the IC50 stood at 0.002 µg/mL.

As to `COc1cc([C@@H]2c3cc4c(cc3[C@H](O)[C@H]3COC(=O)[C@H]23)OCO4)cc(OC)c1OC` [Podophyllotoxin, reference compound], the IC50 in the experiment with L6 cells (Rattus norvegicus, L6, read-out: L6 Cells IC50) was determined as 0.005 µg/mL (≈ 0.0121 µM).

(Values after publication PMC4384300, “Evaluation of the in vitro trypanocidal activity of methylated flavonoid constituents of Vitex simplicifolia leaves” (BMC Complementary and Alternative Medicine, 2015).)
